This is an account of results in ChEMBL document CHEMBL6083206, “SLL-1A-16 suppresses proliferation and induces autophagy in non-small-cell lung cancer cells via the AKT/mTOR signaling pathway” (RSC Med Chem, 2024).

This series is described as follows: Toxicity in Balb/c nude mouse xenografted with human A549 cells assessed as reduction in body weight at 25 mg/kg, ip administered for 14 days. The class given is organism-based. As to conditions: in vivo, 336 h, time 14 day.

As to `Cl.Nc1ccn([C@@H]2O[C@H](CO)[C@@H](O)C2(F)F)c(=O)n1` [GEMCITABINE HYDROCHLORIDE], the Activity entry is listed as “Toxic”.
